The text below walks through data of patent US5567724A, “Alkaline and acid phosphatase inhibitors in treatment of neurological disorders” (Cortex Pharmaceuticals, Inc., priority 1994, dated 1996).

Counter-ions that a name gives are not always drawn. Like-named read-outs stand apart in the source and are kept apart here.

The test system of one series is Hippocampal neurons. In words: Okadaic acid with β-amyloid on hippocampal neurons, LDH efflux. In kind it is cell-based. The note with it: 50 nM okadaic acid with 50 μM β-amyloid (β25-35), 24 hours, DME medium, 37° C. On the procedure:
Hippocampal neurons were treated with 50 μM β-amyloid (β25-35)and 50 nM okadaic acid for 24 hours in Dulbeccois Modified Eagle's (DME) medium at 37° C. Following the 24-hour treatment period, an aliquot of media was removed for determination of LDH efflux from the neurons, which is an indicator of cell death. Each bar in FIG. 3, except the bar representing okadaic acid alone, represents the mean of 4 wells ± the standard deviation. The bar representing okadaic acid alone represents the mean of 2 wells ± the standard deviation.

The test system of series [1] is Dorsal root ganglion cells. The experiment in a line: Vinblastine-induced toxicity in dorsal root ganglion cells, live/dead staining. In kind it is cell-based. The following applies: Na,K-tartrate 500 μM; NGF 50 ng/ml; vinblastine 500 nM; 24 hours. On the procedure:
Dorsal root ganglion cells were treated with Nerve Growth Factor (NGF) (50 ng/ml), vinblastine (500 nM) and Na,K-tartrate (500 μM) for 24 hours. Following the treatment, the dorsal root ganglion cells were stained with ethidium bromide and fluorescein diacetate to stain dead and live cells, respectively.
FIG. 5 illustrates the results of the study of Example 16. Percentage cell viability is determined from the ratio of live cells to total cell number. Each bar in […] represents the mean of 3 wells ± the standard deviation.

In series [2] the test system is rat embryonic hippocampal neurons. The note with it: 50 μM β-amyloid 25-35. As to the method:
To further determine the effect of alkaline phosphatase inhibitors on βamyloid peptide toxicity, rat embryonic hippocampal neurons in culture were exposed to 50 μM β-amyloid 25-35 in the presence of levamisole concentrations of 250 μM and 500 μM.

Series [3] concerns Porcine kidney alkaline phosphatase. The experiment in a line: Alkaline phosphatase assay with pNPP substrate, porcine kidney enzyme. The format is biochemical. The note with it: pNPP 5 mM, pH 5.5 lysis buffer. On the procedure: (§1) Porcine kidney (0.01 U) and calf intestinal (0.002 U) alkaline phosphatases were assayed in the presence of levamisole (200 μM) or vanadate salt (5-500 μM) using pNPP (5 mM) as substrate. The assay was carried out in pH 5.5 lysis buffer. Each bar in FIG. 4 represents the mean of quadruplicates ± the standard deviation. The results of the experiment of Example 4 are illustrated in FIG. 4. […] The effect of treatment on humans with AD using arylimidothiazole derivatives having alkaline phosphatase inhibitory activity is described below in Examples 5-9.

Series [4] concerns calf intestinal alkaline phosphatase. In words: Alkaline phosphatase assay with pNPP substrate, calf intestinal enzyme. In kind it is biochemical. The note with it: pNPP 5 mM, pH 5.5 lysis buffer. As to the method:
as §1

How the values of series [5] were obtained:
Human subjects diagnosed as suffering from AD are administered 50 mg of an arylimidothiazole derivative, such as levamisole, orally every eight hours for three days. The treatment is repeated every 14 days for a period of 6 months. […] A human patient diagnosed as suffering from Alzheimer's Disease is administered about 50 mg levamisole orally every eight hours for three days. The treatment is repeated every 14 days for a period of 6 months. […] Human subjects diagnosed as suffering from AD are administered 0.05 mg/kg of an arylimidothiazole derivative, such as levamisole, orally every day for a period of six months. […] A human patient diagnosed as suffering from Alzheimer's Disease is identified as having deteriorating symptoms of the disease. The patient is administered about 10 mg levamisole orally once per day for a period of six months.

The next series relates to HT4 neurotumor cells. The experiment in a line: β-amyloid peptide toxicity in HT4 neurotumor cells, LDH release. The following applies: 100 μM inhibitor; 50 μM β-amyloid peptide 25-35 and 250 μM quisqualate; 24 hours after treatment. In kind it is cell-based, rat. As to the method: HT4 neurotumor cells were treated with 50 μM β-amyloid peptide 25-35 and 250 μM quisqualate. The cells were also treated with 100 μM of the following alkaline phosphatase inhibitors: 1,10 phenanthroline, phenylalanine, IBMX, bromotetramisole, purine, and theophylline. The death of the neurons was determined by measuring LDH activity in the media 24 hours after treatment. The release of LDH from the cells into the surrounding media indicates cell death.
FIG. 1 illustrates the results of the study of Example 1. […] Cells subjected to no treatment had only a low level of LDH activity.
A general note: Release of lactate dehydrogenase indicates damage to the cell membrane.

For the molecule `C=C1[C@@H](O)[C@@H]2O[C@]3(CC[C@H](/C=C/[C@@H](C)[C@@H]4CC(C)=C[C@@]5(O[C@H](C[C@@](C)(O)C(=O)O)CC[C@H]5O)O4)O3)CC[C@H]2O[C@@H]1[C@@H](O)C[C@H](C)[C@H]1O[C@@]2(CCCCO2)CC[C@H]1C` [okadaic acid], in the series on Hippocampal neurons, the “hippocampal neuronal injury (LDH efflux)” value was “causes hippocampal neuronal injury”.

On to `O=C(O)C(O)C(O)C(=O)O` (single isomer, unassigned) [Na,K-tartrate], for which, in series [1], the “percentage cell viability in the presence of vinblastine” value is recorded as “significantly increased”.

On to `c1ccc([C@H]2CN3CCSC3=N2)cc1` [levamisole, (-)-(S)-2,3,5,6-tetrahydro-6-phenylimidoazide [2,1-b]thiazole monohydrochloride], for which the “death of the neurons, as indicated by the release of LDH” value in series [2] (levamisole 250 μM) was “reduced”. Also, the LDH activity result in series [2] (levamisole 500 μM) is “reduced”. Further, the “Inhibition of porcine kidney alkaline phosphatase activity” value in series [3] (levamisole 200 μM) is “unexpectedly high”. Further, the “Inhibition of calf intestinal alkaline phosphatase” value in series [4] (levamisole 200 μM) is listed as “little effect”. Besides, the “symptoms of AD” value in series [5] (50 mg orally every eight hours for three days, repeated every 14 days for 6 months) was “lessened”; in series [5] (about 10 mg orally once per day for six months), “decrease”.

As to `CC(C)Cn1c(=O)n(C)c(=O)c2[nH]cnc21` [IBMX], the “LDH activity in the media (cell death)” value in the series on HT4 neurotumor cells was “most effective compound tested”.

For the molecule `[O]=[V]([O-])([O-])[O-]` [vanadate], in series [3] (vanadate salt 5-500 μM), the “Inhibition of porcine kidney alkaline phosphatase activity” value is “appear to inhibit”. The “Inhibition of calf intestinal alkaline phosphatase” value in series [4] (vanadate 100 μM) is “significantly inhibited”.
